# Data taken from patent US20150368669A1, “GENE DELIVERY SYSTEM […] GENE AND PHARMACEUTICAL COMPOSITION USING RELAXIN” (INDUSTRY-ACADEMIC COOPERATION FOUNDATION, YONSEI UNIVERSITY, priority 2004, published 2015).
# Assays:
# Format in all cases: cell-based, human
# [1] = tested on: Hep3B; test: TUNEL assay, Hep3B
# Experimental: (§1) U343 (5×10^4), U87MG (5×10^4), C33A (5×10^5), Hep3B (4×10^5), and A549 (5×10^4) cells were plated onto a chamber slide and then infected with adenovirus at an MOT of 0.2-20. Following 24 hr and 48 hr of infection, medium was removed and TUNNEL assay was carried out according to the manufacturer's instruction of ApopTag kit (Intergen, Purchase, N.Y.). For color development, cells were incubated with peroxidase-conjugated streptavidin and then diaminobenzidine (DAKO, Carpinteria, Calif.). At the time that color of cells became brown, cells were counterstained with 0.5% methyl green for 10 min and observed under microscope in more than 4 selected fields. The ratio of stained cells to total cells was calculated.
# [2] = tested on: U87MG; test: TUNEL assay, U87MG
# Experimental: as §1
# [3] = tested on: C33A cells; test: Flow cytometry, Annexin-V and PI dual staining, C33A
# Experimental: To examine apoptosis induced by relaxin, human tumor cell lines, U343, U87MG, C33A, Hep3B and A549, were introduced to 25 T culture flasks and 24 hr later, infected with Ad-ΔE1B or Ad-ΔE1B-RLX adenovirus at an MOT of 0.5-5. Cells were treated with 0.1-1 μM CPT-11 […] as a positive control and treated with PBS as a negative control. After 48 hr, 72 hr and 96 hr of infection, the infected cells were collected and fixed in 70% ethanol at 4° C. for 24 hr. Following the fixation, the cells were incubated with a mixture of PI (propidium iodide, […]) and RNase for 15 min and the analysis by flow cytometry was performed. In addition, to examine early apoptosis induced by relaxin, several human tumor cell lines were infected with Ad-ΔE1B or Ad-ΔE1B-RLX adenovirus as described above. The infected cells were collected and then processed for Annexin V/PI dual staining according to manufacturer's instruction in the ApoAlert V-FITC apoptosis kit (Clontech, Palo Alto, Calif.), followed by flow cytometric analysis.
# [4] = tested on: C33A; test: TUNEL assay, C33A
# Experimental: as §1
# [5] = tested on: A549; test: TUNEL assay, A549
# Experimental: as §1
# [6] = tested on: U343; test: TUNEL assay, U343
# Experimental: as §1
smiles,measurement,setting,value
"CC[C@@]1(O)C(=O)OCc2c1cc1n(c2=O)Cc2cc3ccccc3nc2-1 [CPT, camptothecin]",Proportion of apoptotic cells (%),[1],71.2 ± 15.73%
same,Proportion of apoptotic cells (%),[2],83.0 ± 29.29%
same,apoptotic rate (Annexin-V+/PI−),[3],57.10%
same,Proportion of apoptotic cells (%),[4],60.1 ± 25.41%
same,Proportion of apoptotic cells (%),[5],37.5 ± 5.35%
same,Proportion of apoptotic cells (%),[6],53.5 ± 7.45%
